{"source": "patent US20040120954A1", "about": "“Regulation of mt1-mmp activity” (priority 2000, published 2004)", "key": {"MT1-MMP [1]": {"tested_on": "MT1-MMP", "assay": "In situ gelatin degrading assay (DQ gelatin or Alexa488-conjugated gelatin)", "type": "cell-based, human", "conditions": "DQ gelatin; CHO-K1 (FIG. 13) or COS1 cells (FIG. 22)", "experimental": "Two different in situ gelatin degrading assays were performed. One used DQ™ gelatin (Molecular Probes, Inc., OR, USA). DQ gelatin is a fluorescence-quenched gelatin substrate, and will fluoresce upon proteolytic cleavage. Glass cover slips were coated with 5% DQ™ gelatin in a 10 mg/ml unlabeled gelatin solution, and dried. Transfected cells were cultured on the cover slip in a humidified chamber for 16 hrs. The cells were then fixed with 3% para-formaldehyde and the degraded areas were visualized as those showing fluorescence.\nThe other assay used Alexa488-conjugated gelatin made with an Alexa488-labeling kit (Molecular Probes). The bottom surfaces of 4-well chamber slides (Nunc) were coated with Alexa488-conjugated gelatin according to the method of Yana, I. and Weiss, S. J., Mol. Biol. Cell, 11, 2387-2401, 2000. Transfected COS1 cells were cultured in the chamber slides for 16 hrs in a humidified culture incubator. The cells were then fixed with 3% para-formaldehyde in PBS, and the degraded area was analyzed under a fluorescence microscope. The degraded area was visualized as a dark, non-fluorescent area. Fluorescence images were analyzed using confocal microscopy (BioRad).\n(§1) Next, to determine if MT1PEX-F affects the catalytic activity of MT1-MMP on the cell surface or not, tests for gelatin degrading activity and binding capacity to TIMP-2 were conducted using cells transfected in the same incubator. As shown in FIGS. 12 through 14, CHO-K1 cells were transfected with an expression vector for MT1-F, MT1-F/MT1PEX-F or MT1Cat-F, or a vector alone (Mock). The cells were then treated with trypsin, and separately seeded to: DQ™ gelatin-coated cover slips for testing the proteolytic activity (FIG. 13); and 24-well plates for TIMP-2 binding assay (FIG. 12) and for the activation of proMMP-2 (FIG. 14). Transfected cells on the DQ™ gelatin-coated cover slip as shown in FIG. 13 were incubated in a medium at 37° C. for 18 hrs, and the generated fluorescence was analyzed using confocal microscopy. Transfected cells on the 24-well plate as shown in FIG. 12 were incubated with 25 nM ^125I-labeled TIMP-2 in the presence or absence of BB-94 (50 μM) at 0° C. for 1 hr. MT1-MMP specific binding was calculated by subtracting the datum obtained in the presence of BB-94 (50 μM) from each datum derived from the corresponding experiments. Identically transfected cells on the 24-well plate as shown in FIG. 14 were subjected to the reaction with purified proMMP-2 in a serum-free medium at 37° C. for 18 hrs. The cells and culture supernatants were respectively subjected to Western blotting analysis using a monoclonal anti-FLAG M2 antibody, and gelatin zymography analysis. […] DQ™ gelatin is a fluorescence-quenched gelatin, which fluoresces upon proteolytic cleavage. […]"}, "MT1-F": {"target": "T1, MT1-F (Homo sapiens, UniProt P50281)", "T1 construct": "expressed in transfected cells", "assay": "Co-immunoprecipitation with MT1-F using anti-FLAG M2 beads (COS1 cells)", "type": "binding", "conditions": "co-expressed in COS1 cells (FIG. 18)", "experimental": "Transfected COS1 cells were lysed in a RIPA buffer (50 mM Tris-HCl, pH 7.5; 150 mM NaCl; 1% Triton-X100; 1% sodium deoxycolate; 0.1% SDS; 1 mM EDTA; 1 mM PMSF; 10 μM E-64; 0.02% NaN3) at room temperature for 1 hr. Cell lysates were centrifuged at 15,000 rpm in Eppendorf tubes, and the supernatant was reacted with anti-FLAG M2 antibody-conjugated beads (Sigma) at 4° C. for 1 hr. The beads were washed three times with a RIPA buffer and once with Tris-buffered saline (pH 7.5) (TBS). Bound proteins were eluted by the FLAG peptide ([…] 200 μg/ml) (Sigma) in TBS, and subjected to Western blot analysis using a monoclonal mouse anti-FLAG epitope M2 antibody (Sigma), a monoclonal mouse anti-c-Myc antibody (Ab-1) (Oncogene, MA, USA; 1 μg/ml), a rabbit anti-(human MT1Cat) antibody (1:2000), or a monoclonal mouse anti-human MT1PEX antibody (222-1D8) (0.5 μg/ml).\nThe activation of proMMP-2 by MT1-MMP on the cell surface requires the ternary complex formation of proMMP-2, TIMP-2 and MT1-MMP, and also the presence of TIMP-2-free MT1-MMP near the ternary complex. If TIMP-2-free MT1-MMP and the ternary complex are far apart, the activation should not occur. We thus hypothesized that MT1-MMP would form a homophilic complex on the cell surface to arrange the effective activation complex for MMP-2. […]"}, "MT1-MMP [2]": {"tested_on": "MT1-MMP", "assay": "Activation of proMMP-2 by MT1-MMP on the cell surface of transfected cells (gelatin zymography)", "type": "cell-based, human", "conditions": "transfected COS1 cells, exogenous purified proMMP-2 (FIGS. 2, 20)", "experimental": "Gelatin zymography was conducted using an SDS-polyacrylamide gel (PAGE) containing gelatin (0.8 mg/ml) (Itoh, Y. et al., J. Biol. Chem., 273: 24360-24367, 1998). The samples were mixed with a SDS-PAGE loading buffer without a reducing agent and subjected to electrophoretic analysis at room temperature. Enzyme activity was visualized as a negative staining area with Coomassie Brilliant Blue R-250.\nThe expression construct for FLAG epitope ([…]-tagged MT1-MMP (MT1-F) described in Itoh, Y. et al., J. Biol. Chem., 274: 34260-34266, 1999 was used as a template to generate cDNA for MT1Cat-F (A Ile^318-Gly^535) by the PCR extension method of Ho et al., (Ho, S. N. et al., Gene, 77: 51-59, 1989). The cDNA was subcloned into pSG5 (Stratagene, CA, USA). The PCR-generated fragments were confirmed by DNA sequencing. COS1 cells were transfected with the expression vector for MT1-MMP mutant; MT1-F or MT1Cat-F, or a vector alone (Mock). Expression vectors for each protein were transfected using FuGENE6™ (Roche Molecular Biochemicals) according to the manufacturer's instructions. COS1 cells were seeded in 6-well plates at 1.5×10^5/well at 16 hrs before the transfection was performed. The COS1 cells were maintained in a HAM F-12 medium or DMEM containing 10% fetal bovine serum in a humidified incubator at 37° C. At 48 hrs after the transfection, the cells were collected for use in the experiments. The cells were incubated in the presence of purified proMMP-2 in a serum-free medium (0.25 μg/ml) at 37° C. for 18 hrs. Cell lysates were tested for the expression of the mutants, while culture supernatants were tested for the activation of proMMP-2.\nTo investigate roles of dimer formation upon the activation of proMMP-2, MT1-F was introduced into COS1 cells together with MT1PEX-F. The co-introduced cells were reacted with exogenously added proMMP-2. Thus, COS1 cells were co-transfected with the MT1-F and MT1PEX-F at indicated DNA amount ratios. Next, purified proMMP-2 (0.25 μg/ml) in a serum-free medium was reacted with the resulting cells at 37° C. for 18 hrs. MMP-2 in the culture supernatant was analyzed by gelatin zymography, and the cell lysates were subjected to Western blotting analysis using a monoclonal anti-FLAG M2 antibody.\nas §1, with “experiments.” for “experiments. Identically transfected cells on the 24-well plate as shown in FIG. 14 were subjected to the reaction with purified proMMP-2 in a serum-free medium at 37° C. for 18 hrs. The cells and culture supernatants were respectively subjected to Western blotting analysis using a monoclonal anti-FLAG M2 antibody, and gelatin zymography analysis.”"}}}
{"substance": "MT1Cat: MT1-MMP lacking the PEX domain (untagged)", "values": [{"measurement": "gelatin degrading (proteolytic) activity of cells expressing the mutant", "setting": "MT1-MMP [1]", "result": "retains its proteolytic activity"}, {"measurement": "co-immunoprecipitation with MT1-F", "setting": "MT1-F", "result": "not MT1Cat was co-immunoprecipitated with MT1-F"}, {"measurement": "activation of proMMP-2 by cells expressing the mutant", "setting": "MT1-MMP [2]", "result": "cannot activate proMMP-2"}]}
